The subject of one assay is SEQ ID NO:67. The assay is described as follows: Microarray analysis of SEQ ID NO:67 expression in steroid-treated C3A cells. Conditions: early confluent C3A cells treated for 1, 3, or 6 hours. Format: cell-based, human. The method, then: (§1) Total RNA is isolated from tissue samples using the guanidinium thiocyanate method and poly(A)^+ RNA is purified using the oligo-(dT) cellulose method. Each poly(A)^+ RNA sample is reverse transcribed using MMLV reverse-transcriptase, 0.05 pg/μl oligo-(dT) primer (21 mer), 1× first strand buffer, 0.03 units/μl RNase inhibitor, 500 μM dATP, 500 μM dGTP, 500 μM dTTP, 40 μM dCTWP, 40 μM dCTP-Cy3 (BDS) or dCTP-Cy5 (Amersham Biosciences). The reverse transcription reaction is performed in a […] containing 200 ng poly(A)^+ RNA with GEMBRIGHT kits (Incyte Genomics). Specific control poly(A)^+ RNAs are synthesized by in vitro transcription from non-coding yeast genomic DNA. After incubation at 37° C. for 2 hr, each reaction sample (one with Cy3 and another with Cy5 labeling) is treated with […] of 0.5M sodium hydroxide and incubated for 20 minutes at 85° C. to the stop the reaction and degrade the RNA. Samples are purified using two successive CHROMA SPIN 30 gel filtration spin columns (Clontech, Palo Alto Calif.) and after combining, both reaction samples are ethanol precipitated using […] of 100% ethanol. The sample is then dried to completion using a SpeedVAC (Savant Instruments Inc., Holbrook N.Y.) and resuspended in 14 μl 5×SSC/0.2% SDS.
Sequences of the present invention are used to generate array elements. Each array element is amplified from bacterial cells containing vectors with cloned cDNA inserts. PCR amplification uses primers complementary to the vector sequences flanking the cDNA insert. Array elements are amplified in thirty cycles of PCR from an initial quantity of 1-2 ng to a final quantity greater than 5 μg. Amplified array elements are then purified using SEPHACRYL-400 (Amersham Biosciences).
Purified array elements are immobilized on polymer-coated glass slides. Glass microscope slides (Corning) are cleaned by ultrasound in 0.1% SDS and acetone, with extensive distilled water washes between and after treatments. Glass slides are etched in 4% hydrofluoric acid (VWR Scientific Products Corporation (VWR), West Chester Pa.), washed extensively in distilled water, and coated with 0.05% aminopropyl silane (Sigma) in 95% ethanol. Coated slides are cured in a 110° C. oven.
Array elements are applied to the coated glass substrate using a procedure described in U.S. Pat. No. 5,807,522, incorporated herein by reference. 1 μl of the array element DNA, at an average concentration of 100 ng/μl, is loaded into the open capillary printing element by a high-speed robotic apparatus. The apparatus then deposits about 5 nl of array element sample per slide.
Microarrays are UV-crosslinked using a STRATALINKER UV-crosslinker (Stratagene). […]

For assay [1] the following is noted: relative to progesterone; cited from earlier work.
A further assay addresses CKI-epsilon (Homo sapiens, UniProt P49674). Conditions: recombinant expression; cited from earlier work.
A further assay has as its system SEQ ID NO:57. The assay is described as follows: Microarray analysis of SEQ ID NO:57 expression in steroid-treated C3A cells. It is filed as cell-based, human. The note with it: early confluent C3A cells, 1, 3 and 6 hours (all time points), compared to untreated C3A cells. The method, then:
as §1, with “The sample is then dried to completion using a SpeedVAC (Savant Instruments Inc., Holbrook N.Y.) and resuspended in 14 μl 5×SSC/0.2% SDS.” left out
Sequences of the present invention are used to generate array elements. […] Array elements are amplified in thirty cycles of PCR from an initial quantity of 1-2 ng to a final quantity greater than 5 μg. […]

Chain of CKI-epsilon (P49674 whole entry): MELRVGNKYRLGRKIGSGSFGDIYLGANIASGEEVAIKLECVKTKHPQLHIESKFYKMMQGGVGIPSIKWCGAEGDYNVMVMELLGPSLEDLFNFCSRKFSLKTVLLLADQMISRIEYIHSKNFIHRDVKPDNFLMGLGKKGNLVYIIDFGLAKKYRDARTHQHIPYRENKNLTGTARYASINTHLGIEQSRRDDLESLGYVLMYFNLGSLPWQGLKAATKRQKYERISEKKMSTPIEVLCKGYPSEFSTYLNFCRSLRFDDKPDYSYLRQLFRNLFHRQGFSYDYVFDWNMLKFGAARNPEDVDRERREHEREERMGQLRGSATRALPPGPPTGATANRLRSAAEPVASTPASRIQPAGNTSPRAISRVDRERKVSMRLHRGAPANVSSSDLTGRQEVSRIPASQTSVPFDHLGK

With “6α-methyl-17-hydroxyprogesterone [medroxyprogesterone]”, the “expression of SEQ ID NO:67” value in the assay on SEQ ID NO:67 was “at least a two-fold decrease”. The “pharmacological activity greater than progesterone” value in assay [1] is recorded as “about 15 times”.

Turning to `NCCNS(=O)(=O)c1ccc(Cl)c2ccncc12` [CKI-7], on CKI-epsilon, the “inhibition of CKI-epsilon” value is “inhibited”.

Regarding `C[C@H]1C[C@H]2[C@@H]3CCC4=CC(=O)C=C[C@]4(C)[C@@]3(Cl)[C@@H](O)C[C@]2(C)[C@@]1(O)C(=O)CO` [beclomethasone], the “expression of SEQ ID NO:57” value in the assay with SEQ ID NO:57 (beclamethasone at 10 μM) is recorded as “increased by at least two-fold”. For the same compound, the “expression of SEQ ID NO:67” value in the assay with SEQ ID NO:67 is on record as “at least a two-fold decrease”.

On to `C[C@]12C=CC(=O)C=C1CC[C@@H]1[C@@H]2C(=O)C[C@@]2(C)[C@H]1CC[C@]2(O)C(=O)CO` [prednisone], for which the “expression of SEQ ID NO:67” value in the assay with SEQ ID NO:67 is “at least a two-fold decrease”.

Take `CC(=O)[C@H]1CC[C@H]2[C@@H]3CCC4=CC(=O)CC[C@]4(C)[C@H]3CC[C@]12C` [progesterone]: the “expression of SEQ ID NO:57” value with SEQ ID NO:57 (progesterone at 100 μM) is recorded as “increased by at least two-fold”. Moreover, in the assay with SEQ ID NO:67, the “expression of SEQ ID NO:67” value was “at least a two-fold decrease”.

The record behind these values is patent publication US20050186568A1, “Kinases and phosphatases” (priority 2001, published 2005).
